Results on 32 molecules are retold here after article PMC8286840, “Identifying SARS-CoV-2 antiviral compounds by screening for small molecule inhibitors of Nsp3 papain-like protease” (Biochemical Journal, 2021).

Experiment [1] has as its target T1, SARS-CoV-2 PLpro (nsp3 1564–1878) (Severe acute respiratory syndrome coronavirus 2, UniProt P0DTD1). The experiment is described as follows: biochemical. Also on record: FRET-quenched peptide (Pro3) cleavage by PLpro, 10 min pre-incubation, slope over 20 min, normalised to no-compound control. The following applies: high concentration screen, read-out: % of control remaining.

The target in experiment [2] is T1, SARS-CoV-2 PLpro (nsp3 1564–1878). Kind of experiment: biochemical. Also on record: FRET-quenched peptide (Pro3) cleavage by PLpro, 10 min pre-incubation, slope over 20 min, normalised to no-compound control. To be noted: low concentration screen, read-out: % of control remaining.

Structures are written as SMILES. Structures can show the parent of a compound that is named as a salt. Where two headings read alike, the source gives them in different places.

In the case of `Cc1cc(C)c2c(c1)[C@@H](N(Cc1cc(C(F)(F)F)cc(C(F)(F)F)c1)c1nnn(C)n1)CCCN2C[C@H]1CC[C@H](C(=O)O)CC1` [Evacetrapib (LY2484595)], the remaining activity at 3.75 µM in experiment [1] (Well no.=5320) amounted to 100%. Besides, in experiment [2] (Well no.=5320), the remaining activity at 1.25 µM worked out at 96.7%.

As to `NC1CCN(O)C1=O` (racemic), the remaining activity at 3.75 µM in experiment [1] (Well no.=250) turned out to be 103%. For the same molecule, the remaining activity at 1.25 µM in experiment [2] (Well no.=250) was found to be 101%.

Take `O=C1NC(=O)c2c1c1c3ccccc3[nH]c1c1[nH]c3ccccc3c21` [Arcyriaflavin A - 12,13-Dihydro-5H-indolo[2,3-a]pyrrolo[3,4-c]carbazole-5,7(6H)-dione]: in experiment [1] (Well no.=2532), the remaining activity at 3.75 µM turned out to be 100%. For the same molecule, the remaining activity at 1.25 µM in experiment [2] (Well no.=2532) stood at 102%.

Take `Nc1nonc1C(=Nc1ccc(F)c(Cl)c1)NO` [IDO5L]: the remaining activity at 3.75 µM in experiment [1] (Well no.=8263) came out at 103%. The remaining activity at 1.25 µM in experiment [2] (Well no.=8263) stood at 107%.

Regarding `O=C(Nc1ccccc1)[C@@]12C[C@@H]1/C(=N\O)c1ccccc1O2` [PHCCC], the remaining activity at 3.75 µM in experiment [1] (Well no.=8571) was determined as 105%. In addition, the remaining activity at 1.25 µM in experiment [2] (Well no.=8571) amounted to 107%.

Consider `NCCNc1ncc(C(N)=O)c(Nc2cccc(C(F)(F)F)c2)n1` [Syk Inhibitor II], for which the remaining activity at 3.75 µM in experiment [1] (Well no.=2597) was found to be 101%. The remaining activity at 1.25 µM in experiment [2] (Well no.=2597) came out at 99.7%.

As to `CC(C)c1cc2c(c(O)c1O)[C@@]1(C(=O)O)CCCC(C)(C)[C@@H]1CC2` [Carnosic acid], the remaining activity at 3.75 µM in experiment [1] (Well no.=4038) was 104%. In addition, the remaining activity at 1.25 µM in experiment [2] (Well no.=4038) stood at 101%.

For `COc1ccc(C(=O)c2c(C)n(CCN3CCOCC3)c3ccccc23)cc1` [Pravadoline], the remaining activity at 3.75 µM in experiment [1] (Well no.=1805) was 97.7%. Moreover, the remaining activity at 1.25 µM in experiment [2] (Well no.=1805) was 97.2%.

As for `O=S(=O)(NCCN1CCNCC1)c1ccc(NC2CCCCC2)c(NCc2ccccc2)c1` [UAMC-3203 hydrochloride], the remaining activity at 3.75 µM in experiment [1] (Well no.=6780) came out at 102%. The remaining activity at 1.25 µM in experiment [2] (Well no.=6780) turned out to be 105%.

Take `CO[C@H](C(=O)[C@@H](O)[C@@H](C)O)[C@@H]1Cc2cc3cc(O[C@H]4C[C@@H](O[C@@H]5C[C@@H](O)[C@H](O)[C@@H](C)O5)[C@H](O)[C@@H](C)O4)c(C)c(O)c3c(O)c2C(=O)[C@H]1O[C@H]1C[C@@H](O[C@@H]2C[C@@H](O)[C@@H](O[C@@H]3C[C@](C)(O)[C@H](O)[C@@H](C)O3)[C@@H](C)O2)[C@H](O)[C@@H](C)O1` [Mithramycin A]: the remaining activity at 3.75 µM in experiment [1] (Well no.=3411) is 101%. Further, in experiment [2] (Well no.=3411), the remaining activity at 1.25 µM is 96.9%.

For `COc1ccc(C(=O)Nc2c(Cl)cncc2Cl)cc1OC1CCCC1` [3-(cyclopentyloxy)-N-(3,5-dichloro-4-pyridinyl)-4-methoxybenzamide], the remaining activity at 3.75 µM in experiment [1] (Well no.=5876) is 104%. Besides, in experiment [2] (Well no.=5876), the remaining activity at 1.25 µM amounted to 105%.

For the molecule `CC(C)N(CCCCOCC(=O)O)c1cnc(-c2ccccc2)c(-c2ccccc2)n1` [MRE-269], in experiment [1] (Well no.=7719), the remaining activity at 3.75 µM amounted to 105%. Also, in experiment [2] (Well no.=7719), the remaining activity at 1.25 µM worked out at 107%.

For the molecule `Cc1ccc(C(=O)Nc2ccc(S(=O)(=O)O)c3cc(S(=O)(=O)O)cc(S(=O)(=O)O)c23)cc1NC(=O)c1cccc(NC(=O)Nc2cccc(C(=O)Nc3cc(C(=O)Nc4ccc(S(=O)(=O)O)c5cc(S(=O)(=O)O)cc(S(=O)(=O)O)c45)ccc3C)c2)c1` [Suramin], the remaining activity at 3.75 µM in experiment [1] (Well no.=1622) was found to be 96.7%. In addition, the remaining activity at 1.25 µM in experiment [2] (Well no.=1622) is 99.2%.

`Nc1nc(-c2nn(Cc3ccccc3F)c3ncccc23)ncc1C1CC1` [BAY 41-2272]: the remaining activity at 3.75 µM in experiment [1] (Well no.=7717) stood at 94.6%. In experiment [2] (Well no.=7717), the remaining activity at 1.25 µM was found to be 102%.

Turning to `N=C(N)NCCCCN` [Agmatine sulfate], the remaining activity at 3.75 µM in experiment [1] (Well no.=261) stood at 96.2%. For the same molecule, the remaining activity at 1.25 µM in experiment [2] (Well no.=261) was found to be 93.6%.

For the molecule `NC(=O)c1cccnc1` [Nicotinamide], the remaining activity at 3.75 µM in experiment [1] (Well no.=6305) came out at 99.5%. In experiment [2] (Well no.=6305), the remaining activity at 1.25 µM came out at 102%.

Turning to `O=c1cc(N2CCOCC2)oc2c(-c3ccccc3)cccc12` [LY-294,002 hydrochloride], in experiment [1] (Well no.=1077), the remaining activity at 3.75 µM was determined as 90.8%. Moreover, the remaining activity at 1.25 µM in experiment [2] (Well no.=1077) was determined as 93.7%.

Regarding `CCCCN1CCCCC1C(=O)Nc1c(C)cccc1C` (stereo not shown) [Bupivacaine], the remaining activity at 3.75 µM in experiment [1] (Well no.=2052) was 103%. Besides, the remaining activity at 1.25 µM in experiment [2] (Well no.=2052) worked out at 105%.

`C=CCN1CC[C@]23CCCC[C@H]2[C@H]1Cc1ccc(O)cc13` [Levallorphan]: the remaining activity at 3.75 µM in experiment [1] (Well no.=1702) is 103%. Also, in experiment [2] (Well no.=1702), the remaining activity at 1.25 µM is 106%.

With `C[C@@H](NC(=O)/C(C#N)=C/c1ccc(O)c(O)c1)c1ccccc1` [Tyrphostin AG 527], the remaining activity at 3.75 µM in experiment [1] (Well no.=1431) stood at 100%. In addition, the remaining activity at 1.25 µM in experiment [2] (Well no.=1431) was 97.8%.

For the molecule `O=C(O)c1ccc(O)cc1O` [2,4-Dihydroxybenzoic acid], the remaining activity at 3.75 µM in experiment [1] (Well no.=6781) was 101%. Besides, the remaining activity at 1.25 µM in experiment [2] (Well no.=6781) was determined as 102%.

In the case of `COc1cc2c(cc1OC)[C@H]1CC(=O)[C@H](CC(C)C)CN1CC2` [(+)-Tetrabenazine], the remaining activity at 3.75 µM in experiment [1] (Well no.=8086) came to 108%. In addition, in experiment [2] (Well no.=8086), the remaining activity at 1.25 µM worked out at 107%.

As for `Nc1ccn([C@H]2CC[C@@H](CO)O2)c(=O)n1` [2',3'-dideoxycytidine], the remaining activity at 3.75 µM in experiment [1] (Well no.=549) is 96.6%. Further, the remaining activity at 1.25 µM in experiment [2] (Well no.=549) was 98.3%.

With `COc1ncc(-c2nc3c(n2C(C)C)[C@H](c2ccc(Cl)cc2)N(c2cc(Cl)cn(C)c2=O)C3=O)c(OC)n1` [Siremadlin], in experiment [1] (Well no.=6788), the remaining activity at 3.75 µM is 89.6%. Moreover, the remaining activity at 1.25 µM in experiment [2] (Well no.=6788) stood at 97.9%.

For the molecule `CCCCOc1ccc(C(=O)CCN2CCCCC2)cc1` [Dyclonine HCl], the remaining activity at 3.75 µM in experiment [1] (Well no.=5050) was determined as 101%. Besides, the remaining activity at 1.25 µM in experiment [2] (Well no.=5050) was determined as 103%.

As for `O[C@H]1[C@H]2c3cc4c(cc3CN3CCC(=C[C@@H]1O)[C@H]23)OCO4` [Lycorine], the remaining activity at 3.75 µM in experiment [1] (Well no.=3379) turned out to be 99.5%. The remaining activity at 1.25 µM in experiment [2] (Well no.=3379) turned out to be 99.9%.

As for `C[C@H](Nc1ncnc2nc[nH]c12)c1cc2cccc(Cl)c2c(=O)n1-c1ccccc1` [IPI-145 (INK1197)], the remaining activity at 3.75 µM in experiment [1] (Well no.=5170) was 99.5%. For the same molecule, the remaining activity at 1.25 µM in experiment [2] (Well no.=5170) was determined as 102%.

As to `O=C1c2ccccc2-[n+]2ccc3c([nH]c4ccccc43)c21` [Fascaplysin, Synthetic], the remaining activity at 3.75 µM in experiment [1] (Well no.=2458) stood at 82.7%. Further, the remaining activity at 1.25 µM in experiment [2] (Well no.=2458) turned out to be 89%.

In the case of `CCCCc1ccc(NS(=O)(=O)c2ccc(F)cc2)cc1` [DC260126], the remaining activity at 3.75 µM in experiment [1] (Well no.=6272) was found to be 94.3%. In addition, the remaining activity at 1.25 µM in experiment [2] (Well no.=6272) was found to be 94.7%.

In the case of `C[C@@H](Nc1ncnc2[nH]c(-c3ccc(O)cc3)cc12)c1ccccc1` [PKI-166], in experiment [1] (Well no.=6037), the remaining activity at 3.75 µM was found to be 78.3%. Further, the remaining activity at 1.25 µM in experiment [2] (Well no.=6037) amounted to 94.4%.

For `CN(C/C=C/C#CC(C)(C)C)Cc1cccc2ccccc12`, the remaining activity at 3.75 µM in experiment [1] (Well no.=3894) turned out to be 103%. The remaining activity at 1.25 µM in experiment [2] (Well no.=3894) was 102%.

On to `Cc1c(C)c2c(c(C)c1O)CCC(C)(COc1ccc(CC3SC(=O)NC3=O)cc1)O2` (stereo not shown) [Troglitazone], for which the remaining activity at 3.75 µM in experiment [1] (Well no.=1630) was found to be 99.4%. The remaining activity at 1.25 µM in experiment [2] (Well no.=1630) is 101%.
